Results reported in patent US12105023B2, “Multi-well plate readers and methods of their use” (QUELLTX, INC., priority 2021, dated 2024).
Like-named read-outs stand apart in the source and are kept apart here.

Tests used:
Type in all cases: cell-based
[1] = system: IPSC-derived cardiomyocyte; assay: Simultaneous voltage and calcium imaging in IPSC-derived cardiomyocytes; conditions: 10-test pulse blue stimulation protocol, 3 wells of each concentration, FIG. 41
Source text: A 24 objective plate reader of the invention was used to assay a 96-well plate that contained IPSC-derived cardiomyocyte expressing jRGECO1a calcium sensors, CheRiff actuators, and loaded with BeRST1 fluorescent voltage sensitive dye.
The line labeled “stim” indicates pulses of stimulating light transmitted by the plate reader to multiple wells of the 96-well plate, which caused actuation of CheRiff. This led to resulting changes in voltage and calcium ion concentrations in the cells. The resulting changes in voltage were reported by BeRST1, which was energized by red light transmitted from the plate reader. Calcium ion concentration was reported by jRGECO1, which was energized by yellow light. Thus, the plate reader was able to accurately stimulate an actuator and two reporters in multiple wells of a multi-well plate with three separate wavelengths of light. Moreover, the plate reader was able to simultaneously detect the levels of two separate emission wavelengths of light.
The voltage and calcium fluorescence waveforms in FIG. 40 show the average epoch of the 10-test pulse blue stimulation protocol.
Increasing concentration of Nifedipine altered both the voltage action potential waveform and calcium transients until it was completely extinguished at 0.3 uM.

Nav1.8 = target: T1, Nav1.8 (Homo sapiens, UniProt Q9Y5Y9); assay: Nav1.8 spiking HEK assay (optogenetic, 6-test pulse stimulation protocol)
T1 construct: expressed in transfected cells; host or cells: HEK cells co-expressing CheRiff-GFP and Kir2.1, with BeRST dye as the voltage sensor

Nav1.7 = target: T2, Nav1.7 (Homo sapiens, UniProt Q15858); assay: Nav1.7 spiking HEK assay
T2 construct: expressed in transfected cells; host or cells: HEK cells co-expressing CheRiff, Kir2.1 (lentiviral transduction) and a voltage reporter
T2 sequence (Q15858 whole entry): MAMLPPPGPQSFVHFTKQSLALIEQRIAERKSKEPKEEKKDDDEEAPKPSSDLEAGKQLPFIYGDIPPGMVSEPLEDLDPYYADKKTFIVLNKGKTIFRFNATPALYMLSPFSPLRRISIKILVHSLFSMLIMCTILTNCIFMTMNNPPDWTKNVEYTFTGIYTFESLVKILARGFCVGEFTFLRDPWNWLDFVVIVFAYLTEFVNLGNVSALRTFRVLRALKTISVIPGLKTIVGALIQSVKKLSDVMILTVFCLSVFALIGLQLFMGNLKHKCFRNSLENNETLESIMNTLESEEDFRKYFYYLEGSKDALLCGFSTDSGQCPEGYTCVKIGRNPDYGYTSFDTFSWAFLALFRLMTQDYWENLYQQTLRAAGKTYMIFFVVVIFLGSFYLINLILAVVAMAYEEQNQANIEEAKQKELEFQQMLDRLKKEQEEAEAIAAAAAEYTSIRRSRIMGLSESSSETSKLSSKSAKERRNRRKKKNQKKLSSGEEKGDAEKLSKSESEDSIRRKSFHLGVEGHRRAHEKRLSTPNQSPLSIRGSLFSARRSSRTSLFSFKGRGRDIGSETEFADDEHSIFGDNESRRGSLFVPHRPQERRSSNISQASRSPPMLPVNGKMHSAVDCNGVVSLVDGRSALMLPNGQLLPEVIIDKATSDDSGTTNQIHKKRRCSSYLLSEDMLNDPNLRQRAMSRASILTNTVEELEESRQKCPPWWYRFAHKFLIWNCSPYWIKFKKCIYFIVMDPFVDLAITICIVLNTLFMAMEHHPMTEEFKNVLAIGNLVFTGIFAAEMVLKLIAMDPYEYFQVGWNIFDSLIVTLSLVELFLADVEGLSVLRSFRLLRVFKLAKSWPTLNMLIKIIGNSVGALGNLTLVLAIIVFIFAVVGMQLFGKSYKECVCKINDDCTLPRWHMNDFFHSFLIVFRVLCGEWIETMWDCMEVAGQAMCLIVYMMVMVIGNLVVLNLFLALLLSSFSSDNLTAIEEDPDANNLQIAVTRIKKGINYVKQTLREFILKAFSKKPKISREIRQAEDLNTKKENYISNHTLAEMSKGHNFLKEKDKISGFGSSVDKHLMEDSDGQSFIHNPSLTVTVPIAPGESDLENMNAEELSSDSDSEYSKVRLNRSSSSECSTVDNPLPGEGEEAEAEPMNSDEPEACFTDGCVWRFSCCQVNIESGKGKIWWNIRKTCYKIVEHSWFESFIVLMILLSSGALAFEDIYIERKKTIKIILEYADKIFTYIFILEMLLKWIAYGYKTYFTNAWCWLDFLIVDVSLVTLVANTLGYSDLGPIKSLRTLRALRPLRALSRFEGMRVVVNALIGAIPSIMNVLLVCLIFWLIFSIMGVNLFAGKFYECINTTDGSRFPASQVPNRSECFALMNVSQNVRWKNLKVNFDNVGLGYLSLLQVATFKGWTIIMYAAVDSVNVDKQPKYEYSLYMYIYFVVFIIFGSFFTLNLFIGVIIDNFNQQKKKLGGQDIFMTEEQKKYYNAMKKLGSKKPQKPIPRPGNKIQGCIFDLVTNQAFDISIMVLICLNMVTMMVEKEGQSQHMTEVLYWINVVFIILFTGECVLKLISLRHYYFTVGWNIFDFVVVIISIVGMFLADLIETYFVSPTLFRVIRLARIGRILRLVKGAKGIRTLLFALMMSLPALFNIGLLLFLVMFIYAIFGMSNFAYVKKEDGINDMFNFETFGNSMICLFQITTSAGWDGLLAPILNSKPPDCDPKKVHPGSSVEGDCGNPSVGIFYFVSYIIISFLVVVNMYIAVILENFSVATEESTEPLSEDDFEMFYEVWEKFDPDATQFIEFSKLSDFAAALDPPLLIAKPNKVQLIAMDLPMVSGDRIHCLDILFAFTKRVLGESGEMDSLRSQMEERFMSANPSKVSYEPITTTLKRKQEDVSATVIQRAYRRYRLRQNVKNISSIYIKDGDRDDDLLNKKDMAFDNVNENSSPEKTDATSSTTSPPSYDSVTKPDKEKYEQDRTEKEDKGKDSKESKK

T1 sequence (Q9Y5Y9 whole entry): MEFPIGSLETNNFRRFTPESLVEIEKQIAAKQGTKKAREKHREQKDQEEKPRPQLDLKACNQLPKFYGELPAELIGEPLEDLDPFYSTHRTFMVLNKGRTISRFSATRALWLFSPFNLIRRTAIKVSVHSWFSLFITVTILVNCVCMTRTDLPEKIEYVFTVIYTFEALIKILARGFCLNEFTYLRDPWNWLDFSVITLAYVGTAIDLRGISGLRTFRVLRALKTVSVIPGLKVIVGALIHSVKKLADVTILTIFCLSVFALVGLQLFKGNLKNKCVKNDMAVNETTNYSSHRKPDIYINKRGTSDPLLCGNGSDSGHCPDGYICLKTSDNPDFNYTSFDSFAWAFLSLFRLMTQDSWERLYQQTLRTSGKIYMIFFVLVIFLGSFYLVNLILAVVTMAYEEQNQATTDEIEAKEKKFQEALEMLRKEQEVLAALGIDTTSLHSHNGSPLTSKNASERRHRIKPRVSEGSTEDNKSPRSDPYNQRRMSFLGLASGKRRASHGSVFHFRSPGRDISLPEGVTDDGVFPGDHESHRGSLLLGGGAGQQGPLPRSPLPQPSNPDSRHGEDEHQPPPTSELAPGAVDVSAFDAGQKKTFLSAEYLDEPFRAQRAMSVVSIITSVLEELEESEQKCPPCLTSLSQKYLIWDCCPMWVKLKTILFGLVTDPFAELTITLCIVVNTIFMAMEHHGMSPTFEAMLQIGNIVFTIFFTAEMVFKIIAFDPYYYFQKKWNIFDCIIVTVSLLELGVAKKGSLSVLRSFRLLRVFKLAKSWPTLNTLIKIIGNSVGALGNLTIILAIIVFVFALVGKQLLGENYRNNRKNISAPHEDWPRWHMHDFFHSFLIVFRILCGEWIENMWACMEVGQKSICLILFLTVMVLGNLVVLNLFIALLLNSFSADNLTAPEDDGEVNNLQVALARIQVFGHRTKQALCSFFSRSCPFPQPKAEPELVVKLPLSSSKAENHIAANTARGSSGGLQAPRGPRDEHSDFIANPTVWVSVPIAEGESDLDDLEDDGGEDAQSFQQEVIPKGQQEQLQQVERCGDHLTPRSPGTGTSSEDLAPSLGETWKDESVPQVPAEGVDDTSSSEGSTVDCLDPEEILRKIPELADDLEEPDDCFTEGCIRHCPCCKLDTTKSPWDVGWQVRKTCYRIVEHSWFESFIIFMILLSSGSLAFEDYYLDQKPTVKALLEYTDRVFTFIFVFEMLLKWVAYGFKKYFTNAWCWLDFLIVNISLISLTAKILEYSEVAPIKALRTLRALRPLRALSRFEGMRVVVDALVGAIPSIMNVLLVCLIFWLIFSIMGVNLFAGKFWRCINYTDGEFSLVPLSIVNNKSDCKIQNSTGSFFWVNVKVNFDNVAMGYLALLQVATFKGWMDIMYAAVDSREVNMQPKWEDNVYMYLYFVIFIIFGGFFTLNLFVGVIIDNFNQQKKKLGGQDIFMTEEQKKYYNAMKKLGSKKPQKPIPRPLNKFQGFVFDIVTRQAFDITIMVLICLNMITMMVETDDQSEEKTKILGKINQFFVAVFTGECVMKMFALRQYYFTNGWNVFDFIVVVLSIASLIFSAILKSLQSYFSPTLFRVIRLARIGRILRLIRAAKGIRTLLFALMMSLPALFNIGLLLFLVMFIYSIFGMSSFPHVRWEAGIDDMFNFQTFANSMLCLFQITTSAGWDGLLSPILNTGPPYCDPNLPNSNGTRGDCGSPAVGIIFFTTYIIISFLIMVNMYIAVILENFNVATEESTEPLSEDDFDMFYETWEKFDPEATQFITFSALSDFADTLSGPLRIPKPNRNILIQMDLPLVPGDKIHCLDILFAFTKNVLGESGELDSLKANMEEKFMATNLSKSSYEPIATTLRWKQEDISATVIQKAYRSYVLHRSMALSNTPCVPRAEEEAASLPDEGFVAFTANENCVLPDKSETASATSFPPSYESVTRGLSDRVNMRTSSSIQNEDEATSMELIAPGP

COC(=O)C1=C(C)NC(C)=C(C(=O)OC)C1c1ccccc1[N+](=O)[O-] [Nifedipine]
concentration at which voltage action potential waveform and calcium transients were completely extinguished [1]: 0.3 µM

CNC(=O)c1ccc(-c2cc(Cl)cc(Cl)c2Cl)c(N)n1 [PF-01247324]
IC50 (Nav1.8; Nav1.8 spiking HEK assay, dose response curves, FIG. 43D, read-out: IC50, block of Nav1.8): 130 nM
selectivity against Nav1.7 (Nav1.8; Nav1.8 versus Nav1.7 spiking HEK assays, FIG. 43D): 40 fold
test pulse preference of block (TP1 versus TP5) (Nav1.8; dose response curves at TP5 and TP1, FIG. 43C): preferentially blocks TP5
test pulse at which blocker is more effective (slope of repolarization) (Nav1.8; representative traces, 6-test pulse protocol, FIG. 43B): more effective after the long pulse (TP5)

NC1=N[C@H](O)[C@H]2[C@H]3O[C@]4(O)O[C@@H]([C@@H](O)[C@@]2(N1)[C@@H]4O)[C@]3(O)CO [TTX, Tetrodotoxin]
test pulse preference of block (TP1 versus TP5) (Nav1.8): equivalently blocks TP1 and TP5
selectivity for Nav1.7 (Nav1.7): more than 1,000 fold
